In patent US9926282B2, “Phthalazinones and isoquinolinones as rock inhibitors” (BRISTOL-MYERS SQUIBB COMPANY, priority 2013, dated 2018):

What was measured:
ROCK1 = ROCK1 (Homo sapiens (Human), UniProt Q13464); assay: ROCK assay (LABCHIP peptide phosphorylation), ROCK1; type: biochemical; conditions: 5 μM ATP, 1.5 μM peptide substrate; read-out: ROCK1 IC50
ROCK2 = ROCK2 (Homo sapiens (Human), UniProt O75116); assay: ROCK assay (LABCHIP peptide phosphorylation), ROCK2; type: biochemical; conditions: 5 μM ATP, 1.5 μM peptide substrate
ROCK2, sequence (O75116 whole entry, species assumed): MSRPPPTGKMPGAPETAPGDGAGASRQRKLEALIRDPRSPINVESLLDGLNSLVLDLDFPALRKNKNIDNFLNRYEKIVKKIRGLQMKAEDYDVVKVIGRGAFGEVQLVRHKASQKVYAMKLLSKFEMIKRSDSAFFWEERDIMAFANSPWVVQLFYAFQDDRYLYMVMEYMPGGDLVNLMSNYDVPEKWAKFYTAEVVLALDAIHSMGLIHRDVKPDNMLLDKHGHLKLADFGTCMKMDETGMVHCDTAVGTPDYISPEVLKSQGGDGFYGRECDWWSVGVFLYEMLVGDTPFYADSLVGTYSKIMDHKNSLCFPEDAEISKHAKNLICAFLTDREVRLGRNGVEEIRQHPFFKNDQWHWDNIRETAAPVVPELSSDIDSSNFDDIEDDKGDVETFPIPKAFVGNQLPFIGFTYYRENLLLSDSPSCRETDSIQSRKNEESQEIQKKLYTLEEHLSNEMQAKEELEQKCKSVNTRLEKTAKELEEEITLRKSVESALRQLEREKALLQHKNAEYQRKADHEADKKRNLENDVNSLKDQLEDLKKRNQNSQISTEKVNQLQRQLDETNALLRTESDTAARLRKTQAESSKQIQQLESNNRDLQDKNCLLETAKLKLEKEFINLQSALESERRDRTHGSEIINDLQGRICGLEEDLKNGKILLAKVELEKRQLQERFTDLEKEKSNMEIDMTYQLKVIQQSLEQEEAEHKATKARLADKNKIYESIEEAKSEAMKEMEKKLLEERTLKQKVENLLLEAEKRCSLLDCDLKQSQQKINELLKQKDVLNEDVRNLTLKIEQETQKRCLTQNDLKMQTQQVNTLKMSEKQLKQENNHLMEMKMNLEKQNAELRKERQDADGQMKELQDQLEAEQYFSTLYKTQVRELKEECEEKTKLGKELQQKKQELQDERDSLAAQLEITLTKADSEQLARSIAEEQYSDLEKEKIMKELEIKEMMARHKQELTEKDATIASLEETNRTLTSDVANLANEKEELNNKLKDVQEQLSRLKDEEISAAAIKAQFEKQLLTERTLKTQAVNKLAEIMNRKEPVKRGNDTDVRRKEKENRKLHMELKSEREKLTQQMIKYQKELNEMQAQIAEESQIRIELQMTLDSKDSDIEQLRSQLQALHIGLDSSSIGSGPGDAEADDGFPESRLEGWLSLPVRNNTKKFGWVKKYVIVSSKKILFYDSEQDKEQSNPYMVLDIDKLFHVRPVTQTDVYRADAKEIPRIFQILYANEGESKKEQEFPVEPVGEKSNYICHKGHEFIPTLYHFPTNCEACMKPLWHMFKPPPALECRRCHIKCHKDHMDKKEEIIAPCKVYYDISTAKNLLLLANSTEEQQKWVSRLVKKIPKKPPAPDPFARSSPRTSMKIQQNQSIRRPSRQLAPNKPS

ROCK1, sequence (Q13464 whole entry, species assumed): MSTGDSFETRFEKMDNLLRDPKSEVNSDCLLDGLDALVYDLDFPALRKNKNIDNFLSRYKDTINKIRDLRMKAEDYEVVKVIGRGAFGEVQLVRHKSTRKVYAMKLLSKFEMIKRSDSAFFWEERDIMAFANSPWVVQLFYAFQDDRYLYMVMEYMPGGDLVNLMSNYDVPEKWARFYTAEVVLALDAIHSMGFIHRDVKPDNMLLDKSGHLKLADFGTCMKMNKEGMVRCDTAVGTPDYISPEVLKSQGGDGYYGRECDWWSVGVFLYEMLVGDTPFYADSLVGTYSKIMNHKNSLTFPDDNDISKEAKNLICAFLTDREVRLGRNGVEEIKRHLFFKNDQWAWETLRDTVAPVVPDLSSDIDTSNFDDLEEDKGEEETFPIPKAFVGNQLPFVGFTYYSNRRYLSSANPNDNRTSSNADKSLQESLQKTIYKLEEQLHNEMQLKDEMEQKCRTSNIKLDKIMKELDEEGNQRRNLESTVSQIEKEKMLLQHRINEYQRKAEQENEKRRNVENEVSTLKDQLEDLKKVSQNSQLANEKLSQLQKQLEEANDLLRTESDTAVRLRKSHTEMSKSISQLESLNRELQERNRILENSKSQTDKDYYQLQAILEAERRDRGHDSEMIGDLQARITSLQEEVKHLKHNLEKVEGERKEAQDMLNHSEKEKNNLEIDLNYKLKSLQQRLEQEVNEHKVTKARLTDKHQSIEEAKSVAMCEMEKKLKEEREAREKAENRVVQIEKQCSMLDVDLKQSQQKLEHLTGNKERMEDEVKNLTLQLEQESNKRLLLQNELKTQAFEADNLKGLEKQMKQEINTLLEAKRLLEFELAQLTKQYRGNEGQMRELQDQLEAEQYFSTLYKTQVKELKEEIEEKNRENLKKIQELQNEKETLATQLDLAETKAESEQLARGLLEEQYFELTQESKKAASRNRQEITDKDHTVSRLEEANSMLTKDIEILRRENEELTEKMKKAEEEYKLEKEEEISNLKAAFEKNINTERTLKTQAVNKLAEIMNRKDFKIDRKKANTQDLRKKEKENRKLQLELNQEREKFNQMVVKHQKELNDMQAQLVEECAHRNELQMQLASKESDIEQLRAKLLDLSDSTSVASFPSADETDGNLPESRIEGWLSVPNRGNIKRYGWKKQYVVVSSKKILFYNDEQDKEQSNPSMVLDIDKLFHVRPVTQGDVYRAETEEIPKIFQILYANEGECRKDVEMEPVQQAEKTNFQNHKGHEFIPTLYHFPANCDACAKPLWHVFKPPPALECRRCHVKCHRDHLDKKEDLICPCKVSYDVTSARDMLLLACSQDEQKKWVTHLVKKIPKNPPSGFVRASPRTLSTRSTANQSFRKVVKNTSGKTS

SMILES | IC50 (ROCK1) | IC50 (ROCK2)
CC(C)=Cn1nc(C(=O)Nc2ccc(-c3n[nH]c(=O)c4ccccc34)cc2)c2cc(F)ccc21 [Example 178, 5-fluoro-1-(2-methylprop-1-en-1-yl)-N-[4-(4-oxo-3,4-dihydrophthalazin-1-yl)phenyl]-1H-indazole-3-carboxamide] | 101 to 1000 nM | 0.1 to 100 nM
CC(C)=Cn1nc(C(=O)Nc2ccc(-c3n[nH]c(=O)c4ccccc34)cc2)c2ccc(F)cc21 [Example 179, 6-fluoro-1-(2-methylprop-1-en-1-yl)-N-[4-(4-oxo-3,4-dihydrophthalazin-1-yl)phenyl]-1H-indazole-3-carboxamide] | 0.1 to 100 nM | 0.1 to 100 nM
CC(C)(O)COc1ccn2ncc(C(=O)Nc3ccc(-c4n[nH]c(=O)c5ccccc45)cc3)c2c1 [Example 181, 5-(2-hydroxy-2-methylpropoxy)-N-[4-(4-oxo-3,4-dihydrophthalazin-1-yl)phenyl]pyrazolo[1,5-a]pyridine-3-carboxamide] | 101 to 1000 nM | 0.1 to 100 nM
CC(O)COc1ccn2ncc(C(=O)Nc3ccc(-c4n[nH]c(=O)c5ccccc45)cc3)c2c1 (stereo not shown) [Example 185, 5-(2-hydroxypropoxy)-N-[4-(4-oxo-3,4-dihydrophthalazin-1-yl)phenyl]pyrazolo[1 5-a]pyridine-3-carboxamide] | 0.1 to 100 nM | 0.1 to 100 nM
O=C(Nc1ccc(-c2n[nH]c(=O)c3ccccc23)cc1)c1cnn2ccc(OCCN3CCOCC3)cc12 [Example 187, 5-[2-(morpholin-4-yl)ethoxy]-N-[4-(4-oxo-3,4-dihydrophthalazin-1-yl)phenyl]pyrazolo[1,5-a]pyridine-3-carboxamide] | 0.1 to 100 nM | 0.1 to 100 nM
O=C(Nc1ccc(-c2n[nH]c(=O)c3ccccc23)cc1)c1cnn2cc(OCCN3CCOCC3)ccc12 [Example 188, 6-[2-(morpholin-4-yl)ethoxy]-N-[4-(4-oxo-3,4-dihydrophthalazin-1-yl)phenyl]pyrazolo[1,5-a]pyridine-3-carboxamide] | 0.1 to 100 nM | 0.1 to 100 nM
Cc1c(C(=O)Nc2ccc(-c3n[nH]c(=O)c4ccccc34)cc2)cnn1-c1ccccc1 [Example 189, 5-methyl-N-[4-(4-oxo-3,4-dihydrophthalazin-1-yl)phenyl]-1-phenyl-1H-pyrazole-4-carboxamide] | 0.1 to 100 nM | 0.1 to 100 nM
O=C(Nc1ccc(-c2n[nH]c(=O)c3ccccc23)cc1)c1cnn(-c2ccccc2)c1 [Example 191, N-[4-(4-oxo-3,4-dihydrophthalazin-1-yl)phenyl]-1-phenyl-1H-pyrazole-4-carboxamide] | 0.1 to 100 nM | 0.1 to 100 nM
O=C(Nc1ccc(-c2n[nH]c(=O)c3ccccc23)cc1)C1CC(c2cccc(Cl)c2F)=NO1 (stereo not shown) [Example 193, 3-(3-chloro-2-fluorophenyl)-N-[4-(4-oxo-3,4-dihydrophthalazin-1-yl)phenyl]-4,5-dihydro-1,2-oxazole-5-carboxamide] | 1000 to 50000 nM | 101 to 1000 nM
Cc1cccc(-n2cnc(C(=O)Nc3ccc(-c4n[nH]c(=O)c5ccccc45)cc3)c2)c1 [Example 195, 1-(3-methylphenyl)-N-[4-(4-oxo-3,4-dihydrophthalazin-1-yl)phenyl]-1H-imidazole-4-carboxamide] | 0.1 to 100 nM | 0.1 to 100 nM
COc1ccccc1-n1cc(C(=O)Nc2ccc(-c3n[nH]c(=O)c4ccccc34)cc2)cn1 [Example 197, 1-(2-methoxyphenyl)-N-[4-(4-oxo-3,4-dihydrophthalazin-1-yl)phenyl]-1H-pyrazole-4-carboxamide] | 0.1 to 100 nM | 0.1 to 100 nM
O=C(Nc1ccc(-c2n[nH]c(=O)c3ccccc23)cc1)c1cnn(-c2cccc(Cl)c2)c1 [Example 198, 1-(3-chlorophenyl)-N-[4-(4-oxo-3,4-dihydrophthalazin-1-yl)phenyl]-1H-pyrazole-4-carboxamide] | 0.1 to 100 nM | 0.1 to 100 nM
O=C(Nc1ccc(-c2n[nH]c(=O)c3ccccc23)cc1)c1cnn(Cc2ccccc2)c1 [Example 200, 1-benzyl-N-[4-(4-oxo-3,4-dihydrophthalazin-1-yl)phenyl]-1H-pyrazole-4-carboxamide] | 0.1 to 100 nM | 0.1 to 100 nM
CCn1ccc(C(=O)Nc2ccc(-c3n[nH]c(=O)c4ccccc34)cc2)n1 [Example 204, 1-ethyl-N-[4-(4-oxo-3,4-dihydrophthalazin-1-yl)phenyl]-1H-pyrazole-3-carboxamide] | 101 to 1000 nM | 0.1 to 100 nM
Cc1cc(C(=O)Nc2ccc(-c3n[nH]c(=O)c4ccccc34)cc2)nn1C [Example 205, 1,5-dimethyl-N-[4-(4-oxo-3,4-dihydrophthalazin-1-yl)phenyl]-1H-pyrazole-3-carboxamide] | 101 to 1000 nM | 0.1 to 100 nM
Cc1ccc(N2CC(C(=O)Nc3ccc(-c4n[nH]c(=O)c5ccccc45)cc3)CC2=O)cc1 (stereo not shown) [Example 210, 1-(4-methylphenyl)-5-oxo-N-[4-(4-oxo-3,4-dihydrophthalazin-1-yl)phenyl]pyrrolidine-3-carboxamide] | 101 to 1000 nM | 101 to 1000 nM

Continued, values first:

IC50 (ROCK1) | IC50 (ROCK2) | SMILES
0.1 to 100 nM | 0.1 to 100 nM | COc1cc2cc(C(=O)Nc3ccc(-c4n[nH]c(=O)c5ccccc45)cc3)oc2cc1F [Example 180, 6-fluoro-5-methoxy-N-[4-(4-oxo-3,4-dihydrophthalazin-1-yl)phenyl]-1-benzofuran-2-carboxamide]
0.1 to 100 nM | 0.1 to 100 nM | COc1ccn2ncc(C(=O)Nc3ccc(-c4n[nH]c(=O)c5ccccc45)cc3)c2c1 [Example 182, 5-methoxy-N-[4-(4-oxo-3,4-dihydrophthalazin-1-yl)phenyl]pyrazolo[1,5-a]pyridine-3-carboxamide]
0.1 to 100 nM | 0.1 to 100 nM | O=C(Nc1ccc(-c2n[nH]c(=O)c3ccccc23)cc1)c1cnn2ccc(OCCN3CCCC3)cc12 [Example 183, N-[4-(4-oxo-3,4-dihydrophthalazin-1-yl)phenyl]-5-[2-(pyrrolidin-1-yl)ethoxy]pyrazolo[1,5-a]pyridine-3-carboxamide]
0.1 to 100 nM | 0.1 to 100 nM | COCCOc1ccn2ncc(C(=O)Nc3ccc(-c4n[nH]c(=O)c5ccccc45)cc3)c2c1 [Example 184, 5-(2-methoxyethoxy)-N-[4-(4-oxo-3,4-dihydrophthalazin-1-yl)phenyl]pyrazolo[1,5-a]pyridine-3-carboxamide]
0.1 to 100 nM | 0.1 to 100 nM | O=C(Nc1ccc(-c2n[nH]c(=O)c3ccccc23)cc1)c1cnn(-c2ccccc2)c1C(F)(F)F [Example 190, N-[4-(4-oxo-3,4-dihydrophthalazin-1-yl)phenyl]-1-phenyl-5-(trifluoromethyl)-1H-pyrazole-4-carboxamide]
101 to 1000 nM | 0.1 to 100 nM | Cn1ncc(C(=O)Nc2ccc(-c3n[nH]c(=O)c4ccccc34)cc2)c1-c1ccccc1 [Example 192, 1-methyl-N-[4-(4-oxo-3,4-dihydrophthalazin-1-yl)phenyl]-5-phenyl-1H-pyrazole-4-carboxamide]
101 to 1000 nM | 0.1 to 100 nM | COCC(O)COc1ccn2ncc(C(=O)Nc3ccc(-c4n[nH]c(=O)c5ccccc45)cc3)c2c1 (stereo not shown) [Example 194, 5-(2-hydroxy-3-methoxypropoxy)-N-[4-(4-oxo-3,4-dihydrophthalazin-1-yl)phenyl]pyrazolo[1,5-a]pyridine-3-carboxamide]
1000 to 50000 nM | 101 to 1000 nM | O=C(Nc1ccc(-c2n[nH]c(=O)c3ccccc23)cc1)C1CC(c2ccccc2)=NO1 (stereo not shown) [Example 196, N-[4-(4-oxo-3,4-dihydrophthalazin-1-yl)phenyl]-3-phenyl-4,5-dihydro-1,2-oxazole-5-carboxamide]
0.1 to 100 nM | 0.1 to 100 nM | O=C(Nc1ccc(-c2n[nH]c(=O)c3ccccc23)cc1)c1cnn(-c2ccccc2)c1Cl [Example 199, 5-chloro-N-[4-(4-oxo-3,4-dihydrophthalazin-1-yl)phenyl]-1-phenyl-1H-pyrazole-4-carboxamide]
0.1 to 100 nM | 0.1 to 100 nM | Cn1nc(C(=O)Nc2ccc(-c3n[nH]c(=O)c4ccccc34)cc2)cc1C12CC3CC(CC(C3)C1)C2 [Example 201, 5-(adamantan-1-yl)-1-methyl-N-[4-(4-oxo-3,4-dihydrophthalazin-1-yl)phenyl]-1H-pyrazole-3-carboxamide]
0.1 to 100 nM | 0.1 to 100 nM | Cc1c(C(=O)Nc2ccc(-c3n[nH]c(=O)c4ccccc34)cc2)cnn1-c1cccc(Cl)c1F [Example 202, 1-(3-chloro-2-fluorophenyl)-5-methyl-N-[4-(4-oxo-3,4-dihydrophthalazin-1-yl)phenyl]-1H-pyrazole-4-carboxamide]
101 to 1000 nM | 0.1 to 100 nM | COc1cccc(-n2cc(C(=O)Nc3ccc(-c4n[nH]c(=O)c5ccccc45)cc3)cn2)c1 [Example 203, 1-(3-methoxyphenyl)-N-[4-(4-oxo-3,4-dihydrophthalazin-1-yl)phenyl]-1H-pyrazole-4-carboxamide]
0.1 to 100 nM | 0.1 to 100 nM | Cn1nc(C(=O)Nc2ccc(-c3n[nH]c(=O)c4ccccc34)cc2)cc1C(C)(C)C [Example 206, 5-tert-butyl-1-methyl-N-[4-(4-oxo-3,4-dihydrophthalazin-1-yl)phenyl]-1H-pyrazole-3-carboxamide]
0.1 to 100 nM | 0.1 to 100 nM | Cn1nc(C(=O)Nc2ccc(-c3n[nH]c(=O)c4ccccc34)cc2)cc1-c1ccccc1 [Example 207, 1-methyl-N-[4-(4-oxo-3,4-dihydrophthalazin-1-yl)phenyl]-5-phenyl-1H-pyrazole-3-carboxamide]
0.1 to 100 nM | 0.1 to 100 nM | Cc1cc(C(=O)Nc2ccc(-c3n[nH]c(=O)c4ccccc34)cc2)nn1Cc1ccccc1 [Example 208, 1-benzyl-5-methyl-N-[4-(4-oxo-3,4-dihydrophthalazin-1-yl)phenyl]-1H-pyrazole-3-carboxamide]
101 to 1000 nM | 101 to 1000 nM | Cc1cccc(N2CCC(C(=O)Nc3ccc(-c4n[nH]c(=O)c5ccccc45)cc3)C2=O)c1 (stereo not shown) [Example 209, 1-(3-methylphenyl)-2-oxo-N-[4-(4-oxo-3,4-dihydrophthalazin-1-yl)phenyl]pyrrolidine-3-carboxamide]
